Source: the OligoGym collection
Several values for one entry are separate records, joined by “and”; a condition that tells them apart may be missing. Equal entries are not always repeated. After the bases stand the sugars from the 5' end (letter, count) and the backbone: PS all phosphorothioate, else s phosphorothioate and o phosphodiester by linkage. Methylation of C is not given here. e = 2'-O-(2-methoxyethyl) (MOE); k = constrained ethyl (cEt); d = 2'-deoxy (DNA)

Target: KRAS
Conditions: ASO

## CTTGTACTAGTATGCC (sugars k3 d10 k3, PS)
A431, 0.185 µM
  target mRNA inhibition: 24% and 13%
A431, 0.556 µM
  target mRNA inhibition: 46% and 35%
A431, 1.667 µM
  target mRNA inhibition: 67% and 52%
A431, 2 µM
  target mRNA inhibition: 59%
A431, 5 µM
  target mRNA inhibition: 77% and 71%

## CTTGTTGAGCTATCCA (sugars k3 d10 k3, PS)
A431, 2 µM
  target mRNA inhibition: 63%

## GACTTGAAAAGTGTTT (sugars k3 d10 k3, PS)
A431, 2 µM
  target mRNA inhibition: 14%

## GAGATATCCACAGCAG (sugars k3 d10 k3, PS)
A431, 2 µM
  target mRNA inhibition: 49%

## GAGTCTTTATAGTAAT (sugars kkddddddddkekekk, PS)
A431, 2 µM
  target mRNA inhibition: 0%

## GATATCCACAGCAGCA (sugars k3 d10 k3, PS)
A431, 2 µM
  target mRNA inhibition: 10%

## GATGTAGGGCATTTCT (sugars k3 d10 k3, PS)
A431, 2 µM
  target mRNA inhibition: 0%

## GATTGTGCTGAGCTTG (sugars kkdddddddddkdkdk, PS)
A431, 0.185 µM
  target mRNA inhibition: 0%
A431, 0.556 µM
  target mRNA inhibition: 17%
A431, 1.667 µM
  target mRNA inhibition: 48%
A431, 2 µM
  target mRNA inhibition: 57%
A431, 5 µM
  target mRNA inhibition: 58%

## GCATGAAGATTTCTGG (sugars k3 d10 k3, PS)
A431, 2 µM
  target mRNA inhibition: 62% and 66% and 60%

## GCATGTAAATATAGCC (sugars k3 d10 k3, PS)
A431, 2 µM
  target mRNA inhibition: 11%

## GCATTTCTGATGTGAC (sugars k3 d10 k3, PS)
A431, 2 µM
  target mRNA inhibition: 24%

## GCTATTAGGAGTCTTT (sugars k3 d10 k3, PS)
A431, 0.125 µM
  target mRNA inhibition: 68% and 67%
A431, 0.185 µM
  target mRNA inhibition: 33% and 16% and 26%
A431, 0.556 µM
  target mRNA inhibition: 50% and 47% and 44%
A431, 1.667 µM
  target mRNA inhibition: 77% and 67% and 58%
NCI-H460, 0.037 µM
  target mRNA inhibition: 69.9%

## GCTGTGAAACTCTCTA (sugars kdddddddddkekeke, PS)
A431, 2 µM
  target mRNA inhibition: 2%

## GGAGATATCCACAGCA (sugars k3 d10 k3, PS)
A431, 2 µM
  target mRNA inhibition: 0%

## GGAGTCTTTATAGTAA (sugars k3 d9 k3 e1, PS)
A431, 2 µM
  target mRNA inhibition: 41%

## GGAGTCTTTATAGTAA (sugars k3 d10 k3, PS)
A431, 2 µM
  target mRNA inhibition: 38%

## GGAGTCTTTATAGTAA (sugars kkdddddddddkdkdk, PS)
A431, 2 µM
  target mRNA inhibition: 29%

## GGAGTCTTTATAGTAA (sugars kkdddddddddkekek, PS)
A431, 2 µM
  target mRNA inhibition: 21%

## GGCATTTCTGATGTGA (sugars k3 d10 k3, PS)
A431, 2 µM
  target mRNA inhibition: 8%

## GGGCATTTCTGATGTG (sugars k3 d10 k3, PS)
A431, 2 µM
  target mRNA inhibition: 7%

## GGTGTAACATAGGTTA (sugars kkddddddddkekekk, PS)
A431, 0.185 µM
  target mRNA inhibition: 0%
A431, 0.556 µM
  target mRNA inhibition: 2%
A431, 1.667 µM
  target mRNA inhibition: 40%
A431, 2 µM
  target mRNA inhibition: 54%
A431, 5 µM
  target mRNA inhibition: 58%

## GTAAATATAGCCCCAA (sugars k3 d10 k3, PS)
A431, 2 µM
  target mRNA inhibition: 29%

## GTACTAGTATGCCTTA (sugars k3 d10 k3, PS)
A431, 2 µM
  target mRNA inhibition: 50%

## GTAGTTTCACATAGCA (sugars k3 d10 k3, PS)
A431, 2 µM
  target mRNA inhibition: 46%

## GTATTAACACAGAAGT (sugars k3 d10 k3, PS)
A431, 2 µM
  target mRNA inhibition: 0%

## GTCCAGTGATACTTTC (sugars kkddddddddddkeke, PS)
A431, 2 µM
  target mRNA inhibition: 39%

## GTGAAACTCTCTATGA (sugars k3 d10 k3, PS)
A431, 2 µM
  target mRNA inhibition: 28%

## GTGTGACTCAGTTAAA (sugars kkddddddddkekekk, PS)
A431, 2 µM
  target mRNA inhibition: 38%

## GTGTTTATGCAATGTT (sugars k3 d9 k3 e1, PS)
A431, 0.185 µM
  target mRNA inhibition: 19%
A431, 0.556 µM
  target mRNA inhibition: 63%
A431, 1.667 µM
  target mRNA inhibition: 79%
A431, 2 µM
  target mRNA inhibition: 59%
A431, 5 µM
  target mRNA inhibition: 88%

## GTGTTTATGCAATGTT (sugars kkddddddddkekekk, PS)
A431, 2 µM
  target mRNA inhibition: 9%

## GTGTTTATGCAATGTT (sugars kkkdddddddddkeke, PS)
A431, 0.185 µM
  target mRNA inhibition: 30%
A431, 0.556 µM
  target mRNA inhibition: 55%
A431, 1.667 µM
  target mRNA inhibition: 80%
A431, 2 µM
  target mRNA inhibition: 66%
A431, 5 µM
  target mRNA inhibition: 85%

## GTTCTGTCTATTCATA (sugars k3 d10 k3, PS)
A431, 2 µM
  target mRNA inhibition: 31%

## GTTGAGCTATCCAAAC (sugars k3 d10 k3, PS)
A431, 2 µM
  target mRNA inhibition: 2%

## GTTTAAAAAAAAAATT (sugars k3 d10 k3, PS)
A431, 2 µM
  target mRNA inhibition: 2%

## GTTTATGCAATGTTAA (sugars kdddddddddkekeke, PS)
A431, 2 µM
  target mRNA inhibition: 31%

## GTTTCACATAGCAATT (sugars k3 d10 k3, PS)
A431, 2 µM
  target mRNA inhibition: 29%

## TAAGGTAAAAGCTAAC (sugars k3 d10 k3, PS)
A431, 2 µM
  target mRNA inhibition: 20%

## TAATAGTTTCCATTGC (sugars k3 d10 k3, PS)
A431, 2 µM
  target mRNA inhibition: 53%

## TAATTAATCCATTTAT (sugars k3 d10 k3, PS)
A431, 2 µM
  target mRNA inhibition: 0%

## TAGTGATTAGGTCAAA (sugars k3 d9 k3 e1, PS)
A431, 2 µM
  target mRNA inhibition: 43%

## TAGTGATTAGGTCAAA (sugars kkddddddddddkeke, PS)
A431, 2 µM
  target mRNA inhibition: 34%

## TCCAGTATTAACACAG (sugars k3 d10 k3, PS)
A431, 2 µM
  target mRNA inhibition: 34%

## TCCAGTGATACTTTCA (sugars kkdddddddddkdkdk, PS)
A431, 2 µM
  target mRNA inhibition: 35%

## TCCAGTGATACTTTCA (sugars kkkddddddddkekek, PS)
A431, 2 µM
  target mRNA inhibition: 48%

## TCCATTTATGTGACTA (sugars k3 d10 k3, PS)
A431, 0.185 µM
  target mRNA inhibition: 29%
A431, 0.556 µM
  target mRNA inhibition: 59%
A431, 1.667 µM
  target mRNA inhibition: 65%
A431, 5 µM
  target mRNA inhibition: 78%

## TCCATTTATGTGACTA (sugars kkdddddddddkekek, PS)
A431, 2 µM
  target mRNA inhibition: 32%

## TCTATGAAAGCTCAAA (sugars k3 d10 k3, PS)
A431, 2 µM
  target mRNA inhibition: 18%

## TCTCCATTAGTAAATA (sugars k3 d10 k3, PS)
A431, 2 µM
  target mRNA inhibition: 13%

## TCTTGATTTGTCAGCA (sugars k3 d10 k3, PS)
A431, 0.185 µM
  target mRNA inhibition: 13% and 0%
A431, 0.556 µM
  target mRNA inhibition: 22% and 21%
A431, 1.667 µM
  target mRNA inhibition: 60% and 47%
A431, 2 µM
  target mRNA inhibition: 62%
A431, 5 µM
  target mRNA inhibition: 75% and 69%

## TGATTTGTCAGCAGGA (sugars kkddddddddddkeke, PS)
A431, 0.185 µM
  target mRNA inhibition: 31%
A431, 0.556 µM
  target mRNA inhibition: 48%
A431, 1.667 µM
  target mRNA inhibition: 67%
A431, 2 µM
  target mRNA inhibition: 55%
A431, 5 µM
  target mRNA inhibition: 8%

## TGATTTGTCAGCAGGA (sugars kkddddddddkekekk, PS)
A431, 2 µM
  target mRNA inhibition: 32% and 17%

## TGCTGTGAAACTCTCT (sugars k3 d9 k3 e1, PS)
A431, 2 µM
  target mRNA inhibition: 23%

## TGGTGAATATCTTCAA (sugars k3 d10 k3, PS)
A431, 2 µM
  target mRNA inhibition: 9%

## TGGTGTAACATAGGTT (sugars k3 d9 k3 e1, PS)
A431, 0.185 µM
  target mRNA inhibition: 21%
A431, 0.556 µM
  target mRNA inhibition: 46%
A431, 1.667 µM
  target mRNA inhibition: 69%
A431, 2 µM
  target mRNA inhibition: 56%
A431, 5 µM
  target mRNA inhibition: 80%

## TGGTGTAACATAGGTT (sugars kkddddddddddkeke, PS)
A431, 0.185 µM
  target mRNA inhibition: 28%
A431, 0.556 µM
  target mRNA inhibition: 62%
A431, 1.667 µM
  target mRNA inhibition: 74%
A431, 2 µM
  target mRNA inhibition: 67%
A431, 5 µM
  target mRNA inhibition: 87%
NCI-H460, 0.037 µM
  target mRNA inhibition: 64.3%

## TGGTGTAACATAGGTT (sugars kkdddddddddkdkdk, PS)
A431, 0.185 µM
  target mRNA inhibition: 13%
A431, 0.556 µM
  target mRNA inhibition: 33%
A431, 1.667 µM
  target mRNA inhibition: 63%
A431, 2 µM
  target mRNA inhibition: 57%
A431, 5 µM
  target mRNA inhibition: 75%

## TGTAGTTTCACATAGC (sugars k3 d10 k3, PS)
A431, 0.185 µM
  target mRNA inhibition: 28% and 3%
A431, 0.556 µM
  target mRNA inhibition: 45% and 34%
A431, 2 µM
  target mRNA inhibition: 59%
A431, 5 µM
  target mRNA inhibition: 75% and 69%

## TGTTTATGCAATGTTA (sugars k3 d9 k3 e1, PS)
A431, 0.185 µM
  target mRNA inhibition: 43%
A431, 0.556 µM
  target mRNA inhibition: 57%
A431, 1.667 µM
  target mRNA inhibition: 78%
A431, 2 µM
  target mRNA inhibition: 72%
A431, 5 µM
  target mRNA inhibition: 90%
NCI-H460, 0.037 µM
  target mRNA inhibition: 65.6%

## TGTTTATGCAATGTTA (sugars kkkddddddddkekek, PS)
A431, 2 µM
  target mRNA inhibition: 52%
